From US20240383906A1, “5-SUBSTITUTED PYRIDINE-2(1H)-KETONE COMPOUND AND USE THEREOF” (JIANGSU KANION PHARMACEUTICAL CO., LTD., priority 2021, published 2024)

Tests used:
[1] = system: Capan-2 cells; assay: Capan-2 cell anti-proliferative activity test; type: cell-based; settings: Homo sapiens, Capan-2, 120 h; 5 days, CellTiter-Glo
Method: Capan-2 cells were provided by Wuhan Heyan Biomedical Technology Co., Ltd., and CellTiter-Glo was purchased from Promega.
Capan-2 cells were seeded in a white 96-well plate, with 80 μL of cell suspension per well, each containing 5,000 Capan-2 cells. The cell plate was placed in a carbon dioxide incubator for overnight culture.
The test compounds were 3-fold diluted with a multi-channel pipette to the 9th concentration, i.e., diluted from 200 μM to 30 nM, and duplicate experiment was set. 78 μL of culture medium was added to an intermediate plate, and then 2 μL of gradient diluted compound per well was transferred to the intermediate plate according to the corresponding position. After mixing well, the compound was transferred to the cell plate at 20 μL per well. The cell plate was placed in a carbon dioxide incubator and cultured for 5 days. Another cell plate was prepared, and the signal value was read on the day of drug administration to serve as the maximum value (Max value in the equation below) for data analysis. 25 μL of cell viability chemiluminescence detection reagent was added to each well of this cell plate, and it was incubated at room temperature for 10 minutes to stabilize the luminescent signal. A multimode microplate reader was used for reading.
After the cell plate was cultured for 5 days, 25 μL of Promega CellTiter-Glo reagent was added to each well of the cell plate, and it was incubated at room temperature for 10 minutes to stabilize the luminescent signal. A multimode microplate reader was used for reading.
The IC50 value could be obtained through curve fitting, and the results of the inhibitory activity of the compounds of the present disclosure on the proliferation of Capan-2 cells are shown in Table 11.

[2] = system: WNT pathway STF reporter gene; assay: Super-Top-Flash (STF) reporter gene inhibitory activity test; type: cell-based; settings: HEK293 STF and L wnt3A cells 1:1, 24 hours, Bright-Glo
Method: HEK293 STF and L wnt3A cells were provided by Wuhan Heyan Biomedical Technology Co., Ltd., and Bright Glo was purchased from Promega.
• HEK293 STF and L wnt3A cells were seeded in a white 96-well plate at a ratio of 1:1, with 80 μL of cell suspension per well, each containing 20,000 HEK293 STF cells and 20,000 L wnt3A cells. The cell plate was placed in a carbon dioxide incubator for overnight culture.
The test compounds were 5-fold diluted with a multi-channel pipette to the 8th concentration, i.e., diluted from 400 μM to 5.12 nM, and duplicate experiment was set. 78 μL of culture medium was added to an intermediate plate, and then 2 μL of gradient diluted compound per well was transferred to the intermediate plate according to the corresponding position. After mixing well, the compound was transferred to the cell plate at 20 μL per well. The cell plate was placed in a carbon dioxide incubator and cultured for 24 hours.
100 μL of Promega Bright-Glo reagent was added to each well of the cell plate, and it was incubated at room temperature for 10 minutes to stabilize the luminescent signal. A multimode microplate reader was used for reading.
Using the raw data from the multimode microplate reader, the IC50 value could be obtained through curve fitting. Table 10 provides the data on the inhibitory activity of the compounds of the present disclosure on the Wnt signaling pathway.

[3] = Solvent pre-stability of crystal form A (suspension stirring, XRPD); type: physicochemical; settings: for Crystal form after suspension in solvent (XRPD): stirred overnight at 25° C.
Method: (To ensure maximum suspension of the sample, the amount of compound and solvent was adjusted during the experiment based on the observed phenomena, and even the container used for the experiment was changed if necessary.) After adding a magneton, the suspension sample was placed on a magnetic heating stirrer (25° C.) for testing. After stirring overnight at 25° C., the suspension sample was filtered, and the solid sample on the filter cake was placed in a vacuum drying oven (45° C.) to dry overnight. The crystal form of the solid was obtained by X-ray powder diffraction (XRPD) detection.

[4] = Hygroscopicity of crystal form A (DVS); type: physicochemical
Method: • SMS DVS intrinsic dynamic vapor sorption instrument
Note: ΔW % represents the increase in weight due to moisture absorption of the test sample at 25±1° C. and 80±2% RH.

[5] = Solid pre-stability test of crystal form A (high temperature, high humidity, light; XRPD); type: physicochemical
Method: The sample placed under high temperature (60° C.) and high humidity (relative humidity 92.5% RH) conditions was sealed with aluminum foil to seal the mouth of the vial, and small holes were made in the aluminum foil to ensure that the sample could fully contact the ambient air, and it was placed in the corresponding constant temperature and humidity box. The light sample (open, not covered with aluminum foil) and the light control sample (the entire sample vial was covered with aluminum foil) were placed in the light box. At each time point, two samples were weighed separately as official test samples. […] The sample vial was wrapped with aluminum foil and small holes were made, and it was also placed in the corresponding constant temperature and humidity box. The sample was taken for testing (XRPD) on days 5 and 10, and the test results were compared with the initial test results on day 0.

## Cn1cc(-c2ccc(CNc3nccn4c(-c5cncc(F)c5)cnc34)cn2)ccc1=O [Compound 4]
[1]
  IC50: 24.6 nM

## Cn1cc(-c2ccc(CNc3nccn4c(-c5cncc(F)c5)cnc34)cc2)ccc1=O [Compound 6]
[1]
  IC50: 22.2 nM

## Cn1cc(-c2ccc(CNc3nccc4c3ncn4-c3cncc(F)c3)cn2)ccc1=O [Compound 5]
[1]
  IC50: 11.7 nM

## Cn1cc(-c2cnc(CNc3nccn4c(-c5cncc(F)c5)cnc34)cn2)ccc1=O [Compound 3]
[1]
  IC50: 28 nM

## Cn1cc(-c2ccc(CNc3nccc4c3ncn4-c3ccccc3)cn2)ccc1=O [Compound 7]
[1]
  IC50: 5.94 nM

## Cn1cc(-c2ccc(CNc3ncnn4c(-c5cncc(F)c5)ccc34)cn2)ccc1=O [Compound 1]
[1]
  IC50: 6.09 nM
[2]
  IC50: 8.41 nM

## Cn1cc(-c2cnc(CNc3nccn4c(-c5cc(F)cc(F)c5)cnc34)cn2)ccc1=O [crystal form A of compound 2]
[3]; 2-Methyltetrahydrofuran
  Crystal form after suspension in solvent (XRPD): Crystal form A
[3]; Acetone
  Crystal form after suspension in solvent (XRPD): Crystal form A
[3]; Acetone:water (2:1)
  Crystal form after suspension in solvent (XRPD): Crystal form A
[3]; Acetonitrile
  Crystal form after suspension in solvent (XRPD): Crystal form A
[3]; Dioxane
  Crystal form after suspension in solvent (XRPD): Crystal form A
[3]; Ethanol
  Crystal form after suspension in solvent (XRPD): Crystal form A
[3]; Ethanol:water (1:1)
  Crystal form after suspension in solvent (XRPD): Crystal form A
[3]; Ethyl acetate
  Crystal form after suspension in solvent (XRPD): Crystal form A
[3]; Isopropanol
  Crystal form after suspension in solvent (XRPD): Crystal form A
[3]; Methanol
  Crystal form after suspension in solvent (XRPD): Crystal form A
[3]; Methyl tert-butyl ether
  Crystal form after suspension in solvent (XRPD): Crystal form A
[3]; Tetrahydrofuran
  Crystal form after suspension in solvent (XRPD): Crystal form A
[3]; conclusion
  Stability in different solvents: good stability
[3]; n-Heptane
  Crystal form after suspension in solvent (XRPD): Crystal form A
[4]; 25° C. and 80% RH
  Hygroscopicity classification: no or almost no hygroscopicity
[4]; 25° C., 80% RH, compared to initial humidity of 30% (cycle 1 adsorption)
  Weight gain due to moisture absorption: 0.07%
[4]; 25° C., humidity continued to rise to 90%
  Weight decrease of the sample: 0.15%
[4]; 25° C., humidity continued to rise to 95% (cycle 1 adsorption)
  Weight gain due to moisture absorption: 0.01%
[4]; 30-95-0-95% RH/25° C.
  Crystal form before and after the DVS test (XRPD): the crystal form did not change
[5]; 0 days
  Crystal form (XRPD): Crystal form A
[5]; High humidity (relative humidity 92.5%, open), 5 days
  Crystal form (XRPD): Crystal form A
[5]; High humidity (relative humidity 92.5%, open), 10 days
  Crystal form (XRPD): Crystal form A
[5]; High temperature (60° C., open), 5 days
  Crystal form (XRPD): Crystal form A
[5]; High temperature (60° C., open), 10 days
  Crystal form (XRPD): Crystal form A
[5]; Light (total illumination = 1.2 × 10^6 Lux · hr/near ultraviolet = 200 w · hr/m^2, open), 5 days
  Crystal form (XRPD): Crystal form A
[5]; Light (total illumination = 1.2 × 10^6 Lux · hr/near ultraviolet = 200 w · hr/m^2, open), 10 days
  Crystal form (XRPD): Crystal form A
[5]; conclusion
  Stability under high temperature, high humidity, and strong light: good stability
